Structure (SMILES)	melting point [°C]
CC(C)(C)c1ccc2c(c1)CN[C@H](C(=O)Nc1ccc3c(c1)OCCO3)C2.Cl	134
CC(=O)Nc1nc2c(NC(=O)c3cc4ccc(C(F)(F)F)cc4s3)cccc2s1	285.4 to 285.9
CC(=O)Nc1nc2c(NC(=O)c3ccc4cc(Br)ccc4c3)cccc2s1 [Example 4, 6-Bromo-naphthalene-2-carboxylic acid (2-acetylamino-benzothiazol-4-yl)-amide]	241.6
CC(C)(C)c1ccc2cc(C(=O)Nc3ccc4c(c3)OCCO4)ncc2c1 [Example 11, 7-tert-Butyl-isoquinoline-3-carboxylic acid (2,3-dihydro-benzo[1,4]dioxin-6-yl)-amide]	154 to 157
O=C(Nc1ccc2c(c1)OCCO2)c1cc2ncc(C(F)(F)F)cc2s1 [Example 12, 6-Trifluoromethyl-thieno[3,2-b]pyridine-2-carboxylic acid (2,3-dihydro-benzo[1,4]dioxin-6-yl)-amide]	247
O=C(Nc1ccc2c(c1)OCCO2)c1cnc2cc(C(F)(F)F)ccc2c1Cl [Example 13, 4-Chloro-7-trifluoromethyl-quinoline-3-carboxylic acid (2,3-dihydro-benzo[1,4]dioxin-6-yl)-amide]	296
O=C(Nc1ccc2c(c1)OCCO2)c1ccc2cc(Br)ccc2c1 [Example 14, 6-Bromo-naphthalene-2-carboxylic acid (2,3-dihydro-benzo[1,4]dioxin-6-yl)-amide]	222.7

Reference: patent US7553848B2, “Vanilloid receptor ligands and their use in treatments” (Amgen Inc., priority 2004, dated 2009)
